Measured values reported in ChEMBL document CHEMBL1143982, “A comparative molecular field and comparative molecular similarity indices analyses (CoMFA and CoMSIA) of N-phenyl-N'-(2-chloroethyl)ureas targeting the colchicine-binding site as anticancer agents” (2008).

The compounds below were run on HT-29 (assay: Antiproliferative activity against human HT29 cells).
Assay type: functional

First: CCCNC(=O)Nc1ccc(C(C)(C)C)cc1
Second: CCNC(=O)Nc1ccc(C(C)(C)C)cc1
The GI50 of the first is 2.4-fold lower: 35 µM for the first, 83 µM for the second.

First: CC[C@H](CCl)NC(=O)Nc1ccc(C(C)C)cc1
Second: CC[C@@H](CCl)NC(=O)Nc1ccc(C(C)C)cc1
The GI50 of the first is 1.8-fold lower: 30 µM for the first, 54 µM for the second.

Going from `CC(C)CCc1ccc(NC(=O)NCCCl)cc1` to `CC(C)Cc1ccc(NC(=O)NCCCl)cc1`, the GI50 falls from 33 µM to 21 µM (1.6-fold).

Going from `CCC(C)c1ccc(NC(=O)N[C@@H](C)CCl)cc1` (stereo partly specified) to `CCC(C)c1ccc(NC(=O)N[C@H](C)CCl)cc1` (stereo partly specified), the GI50 falls from 54 µM to 8.9 µM (6.1-fold).

Compared with `O=C(NCCCl)Nc1ccc(I)cc1`, `Cc1ccc(NC(=O)NCCCl)cc1` is 5.9-fold higher in GI50: 3.9 µM for the first, 23 µM for the second.

Going from `O=C(NCCCl)Nc1ccc2c(c1)-c1ccccc1C2` to `C[C@H](CCl)NC(=O)Nc1ccc2c(c1)-c1ccccc1C2`, the GI50 falls from 13 µM to 6.6 µM (2-fold).

`CCCCCc1ccc(NC(=O)NCCCl)cc1` and `CCCCCCc1ccc(NC(=O)NCCCl)cc1` are the same in GI50: 12 µM for the first, 12 µM for the second.

Going from `CNC(=O)Nc1ccc(C(C)(C)C)cc1` to `C[C@H](CCl)NC(=O)Nc1ccc(C(C)(C)C)cc1`, the GI50 falls from 400 µM to 8.9 µM (45-fold).

Compared with `CCC(C)c1ccc(NC(=O)N[C@H](CC)CCl)cc1` (stereo partly specified), `CCC(C)c1ccc(NC(=O)N[C@@H](CC)CCl)cc1` (stereo partly specified) is 1.9-fold higher in GI50: 56 µM for the first, 109 µM for the second.

`CNC(=O)Nc1ccc(C(C)C)cc1` and `CCNC(=O)Nc1ccc(C(C)C)cc1` are the same in GI50: 400 µM for the first, 400 µM for the second.

First: CC(C)c1ccc(NC(=O)N[C@H](C)CCl)cc1
Second: CC(C)c1ccc(NC(=O)N[C@@H](C)CCl)cc1
The GI50 of the first is 63-fold lower: 1.1 µM for the first, 69 µM for the second.

Going from `C[C@@H](CCl)NC(=O)Nc1ccc2c(c1)CCC2` to `C[C@H](CCl)NC(=O)Nc1ccc2c(c1)CCC2`, the GI50 falls from 100 µM to 6.4 µM (16-fold).

Going from `Cc1cc(C)cc(NC(=O)NCCCl)c1` to `Cc1ccc(NC(=O)NCCCl)cc1C`, the GI50 falls from 20 µM to 5.4 µM (3.7-fold).

Compared with `CC[C@@H](CCl)NC(=O)Nc1ccc(I)cc1`, `CC[C@H](CCl)NC(=O)Nc1ccc(I)cc1` is 2.3-fold lower in GI50: 51 µM for the first, 22 µM for the second.

Going from `CC(C)c1ccc(NC(=O)NCCCl)cc1` to `CCCNC(=O)Nc1ccc(C(C)C)cc1`, the GI50 rises from 5 µM to 76 µM (15-fold).

First: CC(C)(C)c1ccc(NC(=O)NCCCl)cc1
Second: CC(C)(C)c1ccc(NC(=O)NCCCCl)cc1
The GI50 of the first is 2.3-fold lower: 9.1 µM for the first, 21 µM for the second.

`CCNC(=O)Nc1ccc(C(C)CC)cc1` (stereo unspecified) and `CCCNC(=O)Nc1ccc(C(C)CC)cc1` (stereo unspecified) are within 1.5-fold of each other in GI50: 132 µM for the first, 133 µM for the second.

Compared with `C[C@@H](CCl)NC(=O)Nc1ccc2ccccc2c1`, `C[C@H](CCl)NC(=O)Nc1ccc2ccccc2c1` is 37-fold lower in GI50: 181 µM for the first, 4.9 µM for the second.

Going from `O=C(NCCCl)Nc1ccc2c(c1)CCC2` to `O=C(NCCCl)Nc1cccc2c1CCCC2`, the GI50 rises from 10 µM to 400 µM (40-fold).

Going from `CCC(C)c1ccc(NC(=O)NCCCl)cc1` (stereo unspecified) to `CCC(C)c1ccc(NC(=O)NC)cc1` (stereo unspecified), the GI50 rises from 3.6 µM to 400 µM (110-fold).

Going from `C[C@@H](CCl)NC(=O)Nc1ccc2c(c1)-c1ccccc1C2` to `C[C@H](CCl)NC(=O)Nc1ccc(I)cc1`, the GI50 falls from 28 µM to 0.85 µM (33-fold).

Going from `O=C(NCCCl)Nc1ccc2[nH]ncc2c1` to `O=C(NCCCl)Nc1ccc2ccccc2c1`, the GI50 falls from 48 µM to 5.5 µM (8.7-fold).

First: O=C(NCCCl)Nc1ccc(Br)cc1
Second: O=C(NCCCl)Nc1ccc(Cl)cc1
The GI50 of the first is 1.6-fold lower: 9 µM for the first, 14 µM for the second.

`CCCc1ccc(NC(=O)NCCCl)cc1` and `CCCCc1ccc(NC(=O)NCCCl)cc1` are within 1.5-fold of each other in GI50: 23 µM for the first, 22 µM for the second.

`C[C@@H](CCl)NC(=O)Nc1ccc(C(C)(C)C)cc1` and `CC[C@H](CCl)NC(=O)Nc1ccc(C(C)(C)C)cc1` are within 1.5-fold of each other in GI50: 55 µM for the first, 56 µM for the second.

Going from `CC(C)(C)Cc1ccc(NC(=O)NCCCl)cc1` to `CCc1ccc(NC(=O)NCCCl)cc1`, the GI50 falls from 36 µM to 6.4 µM (5.6-fold).

First: CC[C@@H](CCl)NC(=O)Nc1ccc(C(C)(C)C)cc1
Second: C[C@@H](CCl)NC(=O)Nc1ccc(I)cc1
The GI50 of the first is 2.2-fold higher: 109 µM for the first, 49 µM for the second.

Each compound was assayed on MDA-MB-231 (assay: Antiproliferative activity against human MDA-MB-231 cells).
Assay type: functional

First: Cc1cc(C)c(NC(=O)NCCCl)c(C)c1
Second: Cc1cccc(NC(=O)NCCCl)c1
The GI50 of the first is 6.7-fold higher: 587 µM for the first, 88 µM for the second.

Compared with `CCc1cccc(NC(=O)NCCCl)c1`, `CCc1ccccc1NC(=O)NCCCl` is 25-fold higher in GI50: 16 µM for the first, 400 µM for the second.

Compared with `CCCCCCCCCCCc1ccc(NC(=O)NCCCl)cc1`, `CCCCCCCCc1ccc(NC(=O)NCCCl)cc1` is 12-fold lower in GI50: 587 µM for the first, 48 µM for the second.

Compound `O=C(NCCCl)Nc1cccc2ccccc12` has a GI50 of 220 µM.
